System: patients with AMD (PED, subretinal fluid)
Assay: Clinical study (compassionate treatment): oral AS101 in conjunction with intra vitreal anti VEGF injections
Format: in vivo, human
From the text: Patients were orally administered with AS101/Formula I in conjunction with intraocular injections of intra vitreal anti VEGF. […] A special compassionate approval has been given by the local committee of ethics in Meir medical center, Kfar Saba, and the Ministry of Health in Israel to treat these two patients with orally taken AS101.
Patient underwent an additional intra-vitreal Lucentis injection and from this point examination continued every month with treatment in PRN mode. Until Jul. 26, 2012 the patient underwent 9 intra-vitreal Lucentis injections. On January 2013 treatment was switched to Aflibercept (Eylea) and the patient received 3 montly injection and an additional injection on Jun. 18, 2013.
The patient received an intravitreal triancinolon acetonid injection followed by the 3rd lucentis one week later. […] The patient received 2 additional Lucentis injections and on Nov. 27, 2012 treatment was switched to Eylea when it became available in Israel. The patient received 8 monthly Eylea injections, the last one on Jun. 18, 2013.
On Jul. 7, 2013, the patient started to receive 12 drops of AS101 every day orally. On Aug.
Except for one occasion of a 5 month interval between 2 injections, the patient received an injection every month. […] Four days after the last Lucentis injection, on 13 Aug. 2013 the patient started to take 12 drops of AS101 orally.

Cl[TeH]1(Cl)(Cl)OCCO1 [AS101]
OCT finding after discontinuation of AS101 (Case 1, 3 weeks after AS101 was discontinued): development of new subretinal fluid in both eyes | time without need for additional injections (Case 1, left eye, until discontinuation of AS101): 8 months | subretinal fluid at the base of the PED (OCT) (Case 1, left eye, 12 drops AS101 daily orally, one month after Lucentis with triamcinilon acetonide injections): decrease of the amount of the subretinal fluid | subretinal fluid at the slope of the PED (OCT) (Case 1, left eye, next 3 monthly OCT tests after cataract surgery, on AS101): absorbed for the first time since it appeared | time without need for intravitreal injections (Case 1, right eye, until discontinuation of AS101): 10 months | adverse events (Case 2, 12 drops AS101 orally): No adverse events were reported | last visual acuity (Case 2, left eye, Nov. 11, 2014, on AS101 (20/200 at diagnosis)): 20/50 | last visual acuity (Case 2, right eye, Nov. 11, 2014, on AS101): 20/30 | Angiogenesis inhibitor injections during treatment according to the invention (Patient #1, LE (left eye), in 9 months, oral AS101): LE: 1 injection in 9 | maximal time interval between injections (Patient #2, during AS 101 treatment with Lucentis): injections: 14 months | Angiogenesis inhibitor injections during treatment according to the invention (Patient #2, in 27 months, 12 drops AS101 orally, Lucentis PRN): 4 injections | Angiogenesis inhibitor injections during treatment according to the invention (Patient #2, in 27 months, 12 drops AS101 orally, Lucentis PRN, listed as AS 101): 4 injections in 27 | progression of drusens/dry AMD to Wet AMD (observation during the compassionate treatment): did not developed to Wet AMD | time intervals between Ranibizumab injections (patient suffering from AMD, otherwise injected every month, with AS-101): 9 months

Aflibercept [Eylea, reference compound]
amount of the subretinal fluid over the peak of the PED and at the slope (Case 1, left eye, 8 monthly injections, before AS101): did not change

B1: Ranibizumab (antibody, chains of the INN, looked up, V domains shown)
VH: EVQLVESGGGLVQPGGSLRLSCAASGYDFTHYGMNWVRQAPGKGLEWVGWINTYTGEPTYAADFKRRFTFSLDTSKSTAYLQMNSLRAEDTAVYYCAKYPYYYGTSHWYFDVWGQGTLVTVSS
VL: DIQLTQSPSSLSASVGDRVTITCSASQDISNYLNWYQQKPGKAPKVLIYFTSSLHSGVPSRFSGSGSGTDFTLTISSLQPEDFATYYCQQYSTVPWTFGQGTKVEIK
subretinal fluid (OCT) (Case 1, right eye, 3 intra-vitreal injections in one month intervals, before AS101): resolution of the subretinal fluid

From US20180116975A1, “COMPOSITIONS AND COMBINATIONS FOR THE TREATMENT OF ANGIOGENESIS DISEASES AND DISORDERS” (BIOMAS LTD., priority 2015, published 2018)
